According to patent US20050130938A1, “Method for alleviating syndromes and conditions of discomfort of the mammalian intestinal and genito-urinary tracts” (AkPharma Inc., priority 2001, published 2005):

Tests used:
[1] = test system: excised animal uterus tissue; conditions: cited from earlier work; for action on the uterus: in vitro, excised animal uterus tissue
intestinal musculature = conditions: some cases; product withdrawn December 2000; cited from earlier work
[2] = cited from earlier work
[3] = test system: IBS-related symptoms and conditions; assay: 'pre-study' IBS survey of patients taking CGP tablets for 28 days; assay type: in vivo, human
Text: A ‘pre-study’ IBS survey was taken in a large private gastroenterology practice in southern New Jersey. Each of the patients in the survey consumed a series of 2-tablet doses of CGP, in which each tablet contained 0.335 grams CGP so that each dosage was 0.67 gram of CGP. Two tablets were consumed at breakfast, lunch, and dinner, regardless of the acidity of the foods consumed at the meals, and two additional tablets were consumed with any snack eaten during the day, regardless of the acidity of the snack. The total consumption by each patient varied from 8-10 tablets per day up to 20 tablets per day.
The survey included twelve patients, eight of whom completed graphs of their 28-day experience with CGP. The experiences of the four remaining patients were written up by the medical supervisor based on oral reports. […] The patients marked daily, in 10% increments and 10% decrements, whether they felt up to 100% better or down to 100% worse as a result of the treatment.

[4] = test system: Interstitial Cystitis Symptoms; conditions: key exacerbant foods and beverages; cited from earlier work
[5] = test system: Food-Sensitive Interstitial Cystitis Patients; conditions: cited from earlier work
Interstitial Cystitis = conditions: ICSG members; cited from earlier work
astrocytes and neurons = conditions: culture; cited from earlier work

For O=P([O-])([O-])OCC(O)CO.[Mg+2] (stereo not drawn) [magnesium glycerophosphate], the “anti-spasmodic behavior on the intestine” value [1] is listed as “exclude the intestine” and the “action on the uterus” value [1] is listed as “uterine anti-spasmodic agents”.

In the case of Cc1[nH]cnc1CN1CCc2c(c3ccccc3n2C)C1=O [Lotronex], the “adverse events in use” value (intestinal musculature) is given as “intestinal ischemic collapse”.

For O=C([O-])[O-].[Ca+2] [calcium carbonate, reference compound], the “time after ingestion until calcium is released” value ([2]; estimated, only in an acidic milieu) is listed as 20 to 30 min.

In the case of O=P([O-])([O-])OCC(O)CO.[Ca+2] (stereo not drawn) [CGP, 1,2,3-propanetriol, mono(dihydrogen phosphate) calcium salt (1:1)], the “oral reports to the medical supervisor” value ([3]; patients without graphs, one of four discontinued) is reported as “helpful and effective at relieving symptoms and/or pain”, the “effect on pain and/or symptoms in two of the eight patients who completed graphs (flatliners)” value ([3]; self-rated daily graph) is reported as “no effect” and the “results of the remaining six patients who completed graphs” value ([3]; self-rated daily graph, some going to 100% improvement and maintaining that level) is reported as “good to remarkable”. The “drop on the self-rated scale on the day without CGP” value ([3]; single patients, one value each) was 10-20% and “50% better” to “50% worse” and “100% better” to “40% worse.”, the “condition on the one day on which CGP was not ingested” value ([3]; three patients, returned to improved state upon resuming treatment) was “marked condition deterioration” and the “patients showed major improvements in IBS-related symptoms and conditions” value ([3]; twelve patients, oral 0.67 gram per dose with meals and snacks, 28 days) was 75%. For the same molecule, the “patients reported a reduction in [urinary] urgency” value [4] was 61.3%, the “patients reported a reduction in pain and discomfort” value [4] was 70.4% and the “pain as a result of consuming CGP” value ([5]; decreased from 76.7%) was 41%. For the same molecule, the “urinary urgency as a result of consuming CGP” value ([5]; decreased from 79.5%) was 51%, the “participants enabled to tolerate a wider variety of foods of an acidic nature” value (Interstitial Cystitis) was 81% and the “participants found it to be beneficial” value (Interstitial Cystitis) was 69%. The “effect on astrocytes in vitro” value (astrocytes and neurons) was “enhance the proliferation and differentiation of astrocytes”, the “effect on neurons compared with calcium chloride and non-reagent added media” value (astrocytes and neurons) was “significant survival effects” and the “dissociation of calcium from the anion” value ([2]; regardless of the pH level in the stomach) was “instantly dissociated”.

For O=P([O-])([O-])OC(CO)CO.[Na+].[Na+] [sodium glycerophosphate, Sodium Beta-Glycerophosphate], the “anti-spasmodic behavior on the intestine” value [1] is given as “exclude the intestine” and the “action on the uterus” value [1] is given as “uterine anti-spasmodic agents”.
